Test results reported in ChEMBL document CHEMBL1201862, “PubChem BioAssay data set” (2004).
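Cultured in 96-well plates, cells were exposed to test compound for 48 hours across five concentrations. Abbreviation: GI50, concentration required for 50% inhibition of growth.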 Calls of active or inactive are those of the source. Cut-off read from the data, not from the text of the source: active = GI50 up to about 1.1 µM and inactive = higher.

Legend:
Assay in all cases: growth of human tumour cells (NCI), 48 h
UACC-62 = system: UACC-62
SN12C = system: SN12C
COLO 205 = system: COLO 205
IGROV-1 = system: IGROV-1
SNB-19 = system: SNB-19
KM-20L2 = system: KM-20L2
LXFL 529 = system: LXFL 529
NCI-H23 = system: NCI-H23
DMS-114 = system: DMS-114
EKVX = system: EKVX
HT-29 = system: HT-29
TK-10 = system: TK-10
NCI-H226 = system: NCI-H226
SR = system: SR

Compound	GI50 (UACC-62)	GI50 (SN12C)	GI50 (COLO 205)	GI50 (IGROV-1)	GI50 (SNB-19)	GI50 (KM-20L2)	GI50 (LXFL 529)	GI50 (NCI-H23)	GI50 (DMS-114)	GI50 (EKVX)	GI50 (HT-29)	GI50 (TK-10)	GI50 (NCI-H226)	GI50 (SR)
CS(=O)(=O)N(CCC#N)c1ccc(/C=N/NC(=O)CC(=O)Nc2cccc(Cl)c2)cc1	> 100 µM (inactive)	> 100 µM (inactive)	> 100 µM (inactive)	> 100 µM (inactive)	> 100 µM (inactive)	> 100 µM (inactive)	> 100 µM (inactive)	> 100 µM (inactive)	> 100 µM (inactive)	> 100 µM (inactive)	> 100 µM (inactive)	> 100 µM (inactive)	> 100 µM (inactive)	–
N#Cc1cc([N+](=O)[O-])ccc1NC(=O)C(=O)Nc1n[nH]c(N)n1	> 100 µM (inactive)	> 100 µM (inactive)	> 100 µM (inactive)	> 100 µM (inactive)	> 100 µM (inactive)	> 100 µM (inactive)	> 100 µM (inactive)	> 100 µM (inactive)	> 100 µM (inactive)	> 100 µM (inactive)	> 100 µM (inactive)	> 100 µM (inactive)	86.3 µM (inactive)	–
CCOC(OC(C)=O)[C@@H]1C=C[C@H](C)N(c2ccc([N+](=O)[O-])cc2)O1 (some centres not stated)	2.54 µM (inactive)	3.4 µM (inactive)	11.9 µM (inactive)	7.98 µM (inactive)	14.7 µM (inactive)	8.55 µM (inactive)	3.65 µM (inactive)	2.84 µM (inactive)	4.69 µM (inactive)	16.1 µM (inactive)	3.17 µM (inactive)	5.7 µM (inactive)	5.57 µM (inactive)	–
Nc1ccccc1C(=O)/C=C/c1ccccc1O	57.1 µM (inactive)	55.2 µM (inactive)	> 100 µM (inactive)	> 100 µM (inactive)	81.1 µM (inactive)	> 100 µM (inactive)	39.2 µM (inactive)	56 µM (inactive)	29.8 µM (inactive)	> 100 µM (inactive)	> 100 µM (inactive)	93.5 µM (inactive)	> 100 µM (inactive)	–
NCCN1C(=O)C2C3c4ccccc4C(c4ccccc43)C2C1=O (configuration not stated)	> 100 µM (inactive)	> 100 µM (inactive)	> 100 µM (inactive)	> 100 µM (inactive)	> 100 µM (inactive)	> 100 µM (inactive)	> 100 µM (inactive)	> 100 µM (inactive)	> 100 µM (inactive)	> 100 µM (inactive)	> 100 µM (inactive)	> 100 µM (inactive)	> 100 µM (inactive)	–
CC(=O)CC(=O)Nc1ccccc1[N+](=O)[O-]	> 100 µM (inactive)	> 100 µM (inactive)	> 100 µM (inactive)	> 100 µM (inactive)	> 100 µM (inactive)	> 100 µM (inactive)	> 100 µM (inactive)	> 100 µM (inactive)	> 100 µM (inactive)	> 100 µM (inactive)	> 100 µM (inactive)	> 100 µM (inactive)	> 100 µM (inactive)	> 100 µM (inactive)
Cn1c(=O)c2ccc(-c3ccc(Br)cc3)nc2n(C)c1=O	> 100 µM (inactive)	–	> 100 µM (inactive)	> 100 µM (inactive)	> 100 µM (inactive)	–	> 100 µM (inactive)	51.2 µM (inactive)	> 100 µM (inactive)	42.9 µM (inactive)	> 100 µM (inactive)	49.5 µM (inactive)	> 100 µM (inactive)	> 100 µM (inactive)
COc1cc([C@@H]2c3cc4c(cc3[C@@H](NCc3ccccc3F)C3COC(=O)[C@@H]32)OCO4)cc(OC)c1O (some centres not stated)	0.463 µM (active)	2.62 µM (inactive)	17.7 µM (inactive)	1.11 µM (active)	5.36 µM (inactive)	2.71 µM (inactive)	11.3 µM (inactive)	2.29 µM (inactive)	3.45 µM (inactive)	10.7 µM (inactive)	4.78 µM (inactive)	27.6 µM (inactive)	2.06 µM (inactive)	–
Cc1nc2c(o1)/C(=N\c1ccccc1)c1nc(C)oc1/C2=N/c1ccccc1	18.8 µM (inactive)	17.5 µM (inactive)	33.1 µM (inactive)	4.73 µM (inactive)	21.2 µM (inactive)	25.5 µM (inactive)	20.8 µM (inactive)	25.9 µM (inactive)	25.5 µM (inactive)	> 10 µM (inactive)	20.4 µM (inactive)	32.7 µM (inactive)	21.4 µM (inactive)	60.5 µM (inactive)
[N-]=[N+]=NC(CCl)c1cn([C@H]2C[C@H](O)[C@@H](CO)O2)c(=O)[nH]c1=O (some centres not stated)	> 100 µM (inactive)	> 100 µM (inactive)	> 100 µM (inactive)	> 100 µM (inactive)	> 100 µM (inactive)	> 100 µM (inactive)	> 100 µM (inactive)	> 100 µM (inactive)	> 100 µM (inactive)	> 100 µM (inactive)	> 100 µM (inactive)	> 100 µM (inactive)	> 100 µM (inactive)	> 100 µM (inactive)
